The values below are quoted from earlier work in patent US20030064123A1, “DHEA supplement for increasing women's libido” (priority 2001, published 2003).

The subject of series [1] is ventrobasal complex of the thalamus. The note with it: rat.
The conditions of series [2]: post-menopausal women, oral DHEA 25 mg/day, after six months.
For series [3], the system named is androgen-deficient female patients. The note with it: testosterone injections.

Molecules are shown by their SMILES.

With `N=C(N)NCCC[C@H](N)C(=O)O` [L-arginine], the “excitatory amino acid responses and sonato sensory transmission” value in series [1] is “enhancement”. In the case of `C[C@]12CC[C@H](O)CC1=CC[C@@H]1[C@@H]2CC[C@]2(C)C(=O)CC[C@@H]12` [DHEA, Dihydroepiandosterone], in series [2], the estrogen levels result is recorded as “returned to premenopausal levels” and the testosterone levels entry is reported as “returned to premenopausal levels”. For the compound `C[C@]12CC[C@H]3[C@@H](CCC4=CC(=O)CC[C@@]43C)[C@@H]1CC[C@@H]2O` [testosterone], the “libido and ability to become aroused and achieve a satisfactory orgasm” value in series [3] is “resolved”.
